This passage reports Km results from PMC11167041, “Purification, characterization and three-dimensional structure prediction of multicopper oxidase Laccases from Trichoderma lixii FLU1 and Talaromyces pinophilus FLU12” (Scientific Reports, 2024).

Where two headings read alike, the source gives them in different places.

Assay [1] relates to T1, Laccase from Trichoderma lixii FLU1 (TlFLU1).
T1 construct: native extracellular enzyme purified from culture; monomer, 44 kDa (SDS-PAGE)
As to the kind of experiment: spectrophotometric oxidation assay, […] nm, Michaelis-Menten fit. The class given is biochemical. The note with it: 50 mM acetate buffer pH 5, 30 °C; substrate varied 1-5 mM.

In assay [2] the test system is T2, Laccase from Talaromyces pinophilus FLU12 (TpFLU12).
T2 construct: native extracellular enzyme purified from culture
The description is as above. The settings on record: 50 mM acetate buffer pH 7, 50 °C; substrate varied 1-5 mM. The class given is biochemical.

The test system of assay [3] is T1, Laccase from Trichoderma lixii FLU1 (TlFLU1). The assay is described as above. The note with it: 50 mM acetate buffer pH 5, 30 °C; substrate varied 1-5 mM. Type of assay: biochemical. The source holds these as a separate data set.
In assay [4] the test system is T2, Laccase from Talaromyces pinophilus FLU12 (TpFLU12). The description is as above. The class given is biochemical. The note with it: 50 mM acetate buffer pH 7, 50 °C; substrate varied 1-5 mM. The source holds these as a separate data set.
Assay [5] has as its system Laccase from Trichoderma lixii FLU1 (TlFLU1). The settings on record: 50 mM acetate buffer pH 5, 30 °C; substrate varied 1-5 mM.
In assay [6] the test system is T1, Laccase from Trichoderma lixii FLU1 (TlFLU1). In words: spectrophotometric oxidation assay, […] nm, Michaelis-Menten fit. Type of assay: biochemical. The note with it: 50 mM acetate buffer pH 5, 30 °C; substrate varied 1-5 mM. The source holds these as a separate data set.

In the case of `COc1cccc(OC)c1O` [2,6-DMP, 2,6-dimethoxyphenol], the Michaelis constant (Km) (as a rule, the concentration of substrate that gives half-maximal velocity) in assay [1] amounted to 13 µM.
For the compound `O=C(O)/C=C/c1ccc(O)c(O)c1` [caffeic acid], the Km amounted to 38.6 µM in assay [2] and 43 µM in assay [3].
Regarding `CCn1c(=NN=c2sc3cc(S(=O)(=O)O)ccc3n2CC)sc2cc(S(=O)(=O)O)ccc21` [ABTS, 2,2-azino-bis-(3-ethyl-benzothiazoline-6-sulphonic acid)], the figures for the Km in assay [4] and in assay [5] were 8.2 µM and 10.8 µM, respectively.
Regarding `COc1ccccc1O` [guaiacol], the Km in assay [6] is 12.7 µM.
